ChEMBL document CHEMBL1143686, “Alkylation potency and protein specificity of aromatic urea derivatives and bioisosteres as potential irreversible antagonists of the colchicine-binding site” (2007)
Active and inactive are the calls of the source. No cut-off for these calls is given here.

What was measured:
MCF7 = assay: Growth inhibition of human MCF7 cells after 48 hrs; format: functional; conditions: MCF7, 48 h
HT-29 = assay: Growth inhibition of human HT29 cells after 48 hrs; format: functional; conditions: HT-29, 48 h
M21 [1] = assay: Growth inhibition of human M21 cells after 48 hrs; format: functional; conditions: M21, 48 h
M21 [2] = assay: Alkylation of beta tubulin in human M21 cells at 25 uM after 16 to 24 hrs; format: functional, cell-based
M21 [3] = assay: Alkylation of beta tubulin in human M21 cells at 25 uM; format: functional, cell-based
M21 [4] = assay: Cell cycle arrest by accumulation at G2/M phase in human M21 cells after 24 hrs by flow cytometry; format: functional, cell-based

| SMILES | GI50 (MCF7) | GI50 (HT-29) | GI50 (M21 [1]) | Activity (M21 [2]) | Activity (M21 [3]) | Activity (M21 [4]) |
| --- | --- | --- | --- | --- | --- | --- |
| c1ccc2c(c1)-c1ccccc1C2NC1=NCCO1 | 11 µM | 15 µM | 17 µM | – | – | – |
| Cc1ccc(NC2=NCCO2)cc1 | 27 µM | 13 µM | 22 µM | – | – | – |
| Cc1ccc(NC(=O)NCCCl)c(C)c1 | – | 78 µM | – | – | – | – |
| Cc1ccc(NC2=NCCO2)cc1C | 5.7 µM | 2.7 µM | 5.1 µM | Active | – | – |
| Cc1ccccc1NC(=O)NC(=O)CCl | 10.6 µM | 9.8 µM | 6.9 µM | – | inactive | – |
| Cc1cccc(NC(=O)NCCCl)c1 | – | 39 µM | 81 µM | – | – | – |
| O=C(CCl)NC(=O)Nc1cccc2c1CCC2 | 2.2 µM | 3.2 µM | 4.9 µM | – | inactive | – |
| O=C(CCl)NC(=O)Nc1ccc2c(c1)Cc1ccccc1-2 | 5 µM | 13 µM | 4.8 µM | – | inactive | – |
| Cc1ccccc1NC1=NCCO1 | 21 µM | 13 µM | 18 µM | – | – | – |
| O=C(NCCCl)Nc1ccc2c(c1)CCC2 | 17 µM | 4.7 µM | 8.9 µM | – | – | Active |
| O=C(NCCCl)Nc1ccc2c(c1)Cc1ccccc1-2 | 14.2 µM | 2.3 µM | 5.1 µM | – | – | Active |
| Cc1cccc(NC(=O)NC(=O)CCl)c1 | 6.1 µM | 9 µM | 4 µM | – | inactive | – |
| Cc1ccc(C)c(NC(=O)NC(=O)CCl)c1 | 5.8 µM | 6.7 µM | 3.8 µM | – | inactive | – |
| c1cc2c(cc1NC1=NCCO1)CCC2 | 9.1 µM | 4.9 µM | 8.1 µM | Active | – | Active |
| O=C(CCl)NC(=O)Nc1ccc(I)cc1 | 6.8 µM | 6.9 µM | 4.2 µM | – | – | – |
| Cc1ccc(NC(=O)NC(=O)CCl)c(C)c1 | 8.6 µM | 11 µM | 7.4 µM | – | inactive | – |
| CC(=O)O[C@H]1C(=O)[C@@]2(C)[C@H]([C@H](OC(=O)c3ccccc3)[C@]3(O)C[C@H](OC(=O)[C@H](O)[C@@H](NC(=O)c4ccccc4)c4ccccc4)C(C)=C1C3(C)C)[C@]1(OC(C)=O)CO[C@@H]1C[C@@H]2O [PACLITAXEL] | 0.054 µM | 0.015 µM | 0.037 µM | – | – | – |
| Cc1cccc(NC2=NCCO2)c1C | 15 µM | 9 µM | 17 µM | – | inactive | – |
| Cc1ccc(C)c(NC2=NCCO2)c1 | 72 µM | 44 µM | 73 µM | – | – | – |
| Cc1ccc(NC(=O)NCCCl)cc1 | 44 µM | 16 µM | 33 µM | – | – | – |
| Cc1cccc(NC2=NCCO2)c1 | 52 µM | 33 µM | 61 µM | – | – | – |
| Cc1cccc(NC(=O)NC(=O)CCl)c1C | 6.5 µM | 6 µM | 4.7 µM | – | inactive | – |

| SMILES | GI50 (MCF7) | GI50 (HT-29) | GI50 (M21 [1]) | Activity (M21 [2]) | Activity (M21 [3]) | Activity (M21 [4]) |
| --- | --- | --- | --- | --- | --- | --- |
| Ic1ccc(NC2=NCCO2)cc1 | 2.9 µM | 1.3 µM | 2 µM | Active | – | – |
| O=C(CCl)NC(=O)NC1c2ccccc2-c2ccccc21 | 4.8 µM | 8.6 µM | 3.4 µM | – | inactive | – |
| Cc1cc(C)cc(NC2=NCCO2)c1 | 19 µM | 7 µM | 12 µM | – | – | – |
| Cc1cc(C)cc(NC(=O)NC(=O)CCl)c1 | 4.3 µM | 6.1 µM | 3.7 µM | – | inactive | – |
| c1cc2c(c(NC3=NCCO3)c1)CCC2 | 26 µM | 16 µM | 30 µM | – | – | – |
| Cc1cc(C)cc(NC(=O)NCCCl)c1 | 31 µM | 8.5 µM | 16 µM | – | – | – |
| O=C(CCl)NC(=O)Nc1ccc2c(c1)CCC2 | 4 µM | 7 µM | 1.7 µM | – | inactive | – |
| Cc1ccc(NC(=O)NCCCl)cc1C | 12 µM | 4.2 µM | 8.4 µM | – | – | – |
| CC[C@]1(O)C[C@@H]2CN(CCc3c([nH]c4ccccc34)[C@@](C(=O)OC)(c3cc4c(cc3OC)N(C)[C@H]3[C@@](O)(C(=O)OC)[C@H](OC(C)=O)[C@]5(CC)C=CCN6CC[C@]43[C@@H]65)C2)C1 [VINBLASTINE] | 0.002 µM | 0.002 µM | 0.01 µM | – | – | – |
| Cc1cccc(C)c1NC(=O)NC(=O)CCl | 7.4 µM | 6.6 µM | 6.3 µM | – | inactive | – |
| Cc1ccc(NC(=O)NC(=O)CCl)cc1 | 7.5 µM | 10 µM | 4.9 µM | – | inactive | – |
| CC(C)(C)c1ccc(NC(=O)NC(=O)CCl)cc1 | 4.8 µM | 3.3 µM | 1.1 µM | – | – | – |
| CC(C)(C)c1ccc(NC2=NCCO2)cc1 | 3 µM | 1.5 µM | 2.4 µM | Active | – | – |
| Cc1cccc(C)c1/N=C1/NCCO1 | 23 µM | 15 µM | 27 µM | – | – | – |
| COc1cc2c(c(OC)c1OC)-c1ccc(OC)c(=O)cc1[C@@H](NC(C)=O)CC2 [COLCHICINE] | 0.009 µM | 0.004 µM | 0.015 µM | – | – | – |
| O=C(NCCCl)Nc1ccc(I)cc1 | 6 µM | 1.9 µM | 3.9 µM | – | – | – |
| O=C(NCCCl)NC1c2ccccc2-c2ccccc21 | 21 µM | 16 µM | 38 µM | – | – | – |
| Cc1ccc(NC(=O)NC(=O)CCl)cc1C | 5.5 µM | 6.9 µM | 4.3 µM | – | inactive | – |
| Cc1ccc(NC2=NCCO2)c(C)c1 | 23 µM | 15 µM | 26 µM | – | inactive | – |
| Cc1ccc(C)c(NC(=O)NCCCl)c1 | – | 67 µM | – | – | – | – |
| O=C(NCCCl)Nc1cccc2c1CCC2 | – | 95 µM | – | – | – | – |
| CC(C)(C)c1ccc(NC(=O)NCCCl)cc1 | 6.2 µM | 2.3 µM | 4.3 µM | – | – | – |
